Measured values from EP0819124B1, “AZOLE COMPOUNDS WITH ANTIMYCOTIC ACTIVITY FOR HUMAN AND VETERINARY USE” (ZAMBON GROUP S.p.A., priority 1995, dated 1996).
Values after ≈ are worked out from the molar mass of the structure shown. Where two headings read alike, the source gives them in different places.

Assays:
[1] = system: C. albicans 1040; assay: In vitro antimycotic activity, macromethod of scalar broth dilutions (YNB); assay type: cell-based, Candida albicans
Procedure: (§1) The determination of the activity inhibiting the growth of mycetes was evaluated by the macromethod of scalar brothdilutions in geometrical progression (M.R. McGinnis and M.G. Rinaldi, "Antifungal drugs: mechanisms of action, drug resistance, susceptibility testing and assay of activity in biological fluids", in Antibiotic in Laboratory Medicine, Ed. V. Lorian, Baltimora 1991).
(§2) As culture media Yeast Nitrogen Base broth (YNB) and Sabouraud Dextrose broth (SDB) were used for yeasts and moulds, respectively.
(§3) The results obtained in SDB (after incubation at 28°C for 7 days) were expressed as minimum inhibiting concentrations (MIC) the growth of mycetes, while those obtained in YNB (after incubation at 35°C for 48 hours) were expressed as concentrations able to inhibit at 50% (IC50) the growth of the yeast.
(§4) As reference compounds Fluconazole, Itraconazole and Genaconazole were used.

[2] = system: C. neoformans; assay: as above; assay type: cell-based; conditions: Cryptococcus neoformans
Procedure: as §1, §2, §3, §4

[3] = system: T.mentagrophytes; assay: In vitro antimycotic activity, macromethod of scalar broth dilutions (SDB); assay type: cell-based, Trychophyton mentagrophytes; conditions: Trichophyton mentagrophytes, 168 h
Procedure: as §1, §2, §3, §4

[4] = system: A. fumigatus; assay: as above; assay type: cell-based; conditions: Aspergillus fumigatus, 168 h
Procedure: as §1, §2, §3, §4

[5] = system: Candida albicans 1040; assay: In vivo antimycotic activity in mice experimentally infected by C. albicans, oral route; parameters: species or system Charles River white mice (CD1 strain); conditions: for PD50 at 8th day / PD50 at 14th day: oral route, probits analysis; for PD50 at 8th day: 8 days from the infection; for PD50 at 14th day: 14 days from the infection; for antimycotic activity in comparison with the compounds of formula II, statement in words: test not named, only in vivo data are printed for R1 and R2
Procedure: Charles River white mice (CD1 strain) weighing from 23 to 25 g, normo-feeded with standard diet and water ad libitum were used.
A suspension (0.2 ml containing 2.5x10^7 cells/ml) of Candida albicans 1040 in physiologic solution was injected to each animal by venous route. Immediately after the infection and after 4, 24 and 48 hours, the animals received by oral route (in arabic gum at 2%) doses increasing in a geometrical progression of the compound to be tested. The infected group was used as control.
The observation of the mortality of the mice was prolonged up to 14 days. From the number of survived animals for each concentration the average protective dose (DP50) was calculated by probits analysis (L.Lison - "Statistica applicata alla biologia sperimentale. La programmazione dell'esperimento e l'analisi dei risultati" - Casa Editrice Ambrosiana, 1961).
Compounds R1 and R2 were used as comparative compounds.
Fluconazole and Itraconazole were used as reference compounds.

[6] = Candida albicans, C. albicans 1040, YNB, incubation at 35°C for 48 hours, read-out: IC50
[7] = C. neoformans, YNB, incubation at 35°C for 48 hours, read-out: IC50
[8] = T.mentagrophytes, SDB, incubation at 28°C for 7 days, read-out: MIC
[9] = A. fumigatus, SDB, incubation at 28°C for 7 days, read-out: MIC

Molecule: CCC(OC(F)(F)C(F)F)C(C)C(O)(Cn1cncn1)c1ccc(Cl)cc1Cl (racemic) [Compound 2, (±)-1-(1H-1,2,4-triazolyl)-2-hydroxy-2-(2,4-dichlorophenyl)-3-methyl-4-(1,1,2,2-tetrafluoroethoxy)hexane]
- IC50 [1, 6]: 0.0312 µg/mL (≈ 0.0702 µM)
- IC50 [2, 7]: 0.125 µg/mL (≈ 0.281 µM)
- MIC [3, 8]: 2 µg/mL (≈ 4.5 µM)
- MIC [4, 9]: 4 µg/mL (≈ 9 µM)
- % percentage of survival after day 3 ([5]; mice infected by C. albicans, dose 25 mg/kg/os, day 3): 100%
- % percentage of survival after day 6 ([5]; mice infected by C. albicans, dose 25 mg/kg/os, day 6): 100%

Molecule: CC(COC(F)(F)C(F)F)C(O)(Cn1cncn1)c1ccc(Cl)cc1 (racemic) [Compound 4, (±)-1-(1H-1,2,4-triazolyl)-2-hydroxy-2-(4-chlorophenyl)-3-methyl-4-(1,1,2,2-tetrafluoroethoxy)butane]
- IC50 [1, 6]: 0.0312 µg/mL (≈ 0.0817 µM)
- IC50 [2, 7]: 0.5 µg/mL (≈ 1.31 µM)
- MIC [3, 8]: 4 µg/mL (≈ 10.5 µM)
- MIC [4, 9]: > 128 µg/mL
- PD50 at 8th day [5]: 0.31 mg/kg/os
- PD50 at 14th day [5]: 1.29 mg/kg/os

Molecule: CC(COC(F)(F)C(F)F)C(O)(Cn1cncn1)c1ccc(F)cc1F (racemic) [Compound 6, (±)-1-(1H-1,2,4-triazolyl)-2-hydroxy-2-(2.4-difluorophenyl)-3-methyl-4-(1,1,2,2-tetrafluoroethoxy)butane]
- IC50 [1, 6]: 0.0312 µg/mL (≈ 0.0814 µM)
- IC50 [2, 7]: 0.0625 µg/mL (≈ 0.163 µM)
- MIC [3, 8]: 0.5 µg/mL (≈ 1.3 µM)
- MIC [4, 9]: 16 µg/mL (≈ 41.7 µM)
- PD50 at 8th day [5]: 0.42 mg/kg/os
- PD50 at 14th day [5]: 1.10 mg/kg/os

Molecule: CCC(COC(F)(F)C(F)F)C(O)(Cn1cncn1)c1ccc(F)cc1F (racemic) [Compound 7, (±)-1-(1H-1,2,4-triazolyl)-2-hydroxy-2-(2,4-difluorophenyl)-3-ethyl-4-(1,1,2,2-tetrafluoroethoxy)butane nitrate]
- IC50 ([1]; Candida albicans, 1040, 48 h): 0.0312 µg/mL
- IC50 ([2]; 48 h): 0.125 µg/mL
- MIC [3]: 0.5 µg/mL
- MIC [4]: 16 µg/mL
- PD50 at 8th day [5]: 1.5 mg/kg/os
- PD50 at 14th day [5]: 2.19 mg/kg/os

Molecule: CC(C)(COC(F)(F)C(F)F)C(O)(Cn1cncn1)c1ccc(Cl)cc1Cl (racemic) [Compound 8, (±)-1-(1H-1,2,4-triazolyl)-2-hydroxy-2-(2,4-dichlorophenyl)-3,3-dimethyl-4-(1,1,2,2-tetrafluoroethoxy)butane]
- IC50 [1, 6]: 0.0312 µg/mL (≈ 0.0725 µM)
- IC50 [2, 7]: 0.0156 µg/mL (≈ 0.0363 µM)
- MIC [3, 8]: 0.25 µg/mL (≈ 0.581 µM)
- MIC [4, 9]: > 4 µg/mL

Molecule: CC(C)(COC(F)(F)C(F)C(F)(F)F)C(O)(Cn1cncn1)c1ccc(F)cc1F (racemic) [Compound 9]
- IC50 [1, 6]: 0.0156 µg/mL (≈ 0.0349 µM)
- IC50 [2, 7]: 0.125 µg/mL (≈ 0.279 µM)
- MIC [3, 8]: 2 µg/mL (≈ 4.47 µM)
- MIC [4, 9]: > 128 µg/mL
- PD50 at 8th day [5]: 0.89 mg/kg/os
- PD50 at 14th day [5]: 1.57 mg/kg/os

Molecule: CC(C)(COCC(F)(F)C(F)F)C(O)(Cn1cncn1)c1ccc(F)cc1F (racemic) [Compound 10, (±)-1-(1H-1,2,4-triazolyl)-2-hydroxy-2-(2,4-difluorophenyl)-3,3-dimethyl-4-(2,2,3,3-tetrafluoropropoxy)butane]
- IC50 [1, 6]: 0.0156 µg/mL (≈ 0.0379 µM)
- IC50 [2, 7]: 0.0625 µg/mL (≈ 0.152 µM)
- MIC [3, 8]: 0.5 µg/mL (≈ 1.22 µM)
- MIC [4, 9]: 8 µg/mL (≈ 19.4 µM)

Molecule: CC(C)(COC(F)(F)F)C(O)(Cn1cncn1)c1ccc(F)cc1F (racemic) [Compound 12, (±)-1-(1H-1,2,4-triazolyl)-2-hydroxy-2-(2,4-difluorophenyl)-3,3-dimethyl-4-trifluoromethoxy-butane]
- IC50 [1, 6]: 0.0156 µg/mL (≈ 0.0427 µM)
- IC50 [2, 7]: 0.0156 µg/mL (≈ 0.0427 µM)
- MIC [3, 8]: 0.125 µg/mL (≈ 0.342 µM)
- MIC [4, 9]: 4 µg/mL (≈ 10.9 µM)
- PD50 at 8th day [5]: 1.09 mg/kg/os
- PD50 at 14th day [5]: 1.39 mg/kg/os

Molecule: (±)-1-(1H-1,2,4-triazolyl)-2-hydroxy-2-(2,4-difluorophenyl)-3,3-dimethyl-4-ethoxy-butane [Compound R1, reference compound]
- PD50 at 8th day [5]: >4 mg/kg/os
- PD50 at 14th day [5]: >4 mg/kg/os
- antimycotic activity in comparison with the compounds of formula II, statement in words [5]: substantially inactive

Molecule: (±)-1-(1H-1,2,4-triazolyl)-2-hydroxy-2-(2,4-difluorophenyl)-3-(2,2,3,3-tetrafluoropropoxy)butane [Compound R2, reference compound]
- PD50 at 8th day [5]: >4 mg/kg/os
- PD50 at 14th day [5]: >4 mg/kg/os
- antimycotic activity in comparison with the compounds of formula II, statement in words [5]: substantially inactive
